In data set [1] the test system is Hes2 hESC derived cardiomyocytes. It counts as cell-based, human. The conditions noted are these: single cells dissociated at end of 7 days treatment, cardiac troponin T staining. As to the method:
(§1) After preculture for 7 days, biowires were randomly transferred to 6-well plates and cultured in StemPro-34 media in the absence or presence of Isoproterenol (100 nM), Angiotensin II (200 nM [17]) or Endothelin-1 (150 nM)(Sigma) for 7 days. This protocol was chosen to replicate the chronic treatment of mice as described. […] Isolated single cells were seeded on Matrigel-coated glass cover slips before cell area and calcium transient measurements were performed.

Data set [2] concerns hESC-CM biowires (Hes2). Kind of data set: Chronic drug exposure: conduction velocity by optical mapping upon point stimulation. It counts as cell-based, human. The conditions noted are these: point stimulation at the end of cultivation, vs non-treated controls. As to the method:
Optical Mapping. […] Imaging was performed at 200 frames/s. […] Data analysis was performed using BrainVision software (Scimedia).

In data set [3] the test system is hESC-CM biowires (Hes2). Kind of data set: Chronic drug exposure of biowires: quantitative RT-PCR of fetal gene program. Conditions: 7 days treatment: ISO 100 nM, Et-1 150 nM, AngII 200 nM, vs untreated control. It counts as cell-based, human. As to the method:
as §1
Quantitative RT-PCR. RT-PCR was performed as previously described. Total RNA was prepared with the High Pure RNA Isolation Kit (Roche) and treated with RNase-free DNase (Roche). RNA was reverse transcribed into cDNA using random hexamers and Oligo (dT) with SuperScript VILO (Invitrogen). RT-qPCR was performed on a LightCycler 480 (Roche) using LightCycler 480 SYBR Green I Master (Roche). Expression levels were normalized to the housekeeping genes TATA box binding protein (TBP) or Glyceraldehyde 3-phosphate dehydrogenase (GAPDH).

Data set [4] relates to hESC-derived CMs 3D tissues. Kind of data set: Chronic drug exposure: cell viability in 3D tissues by live/dead staining. The class given is cell-based, human. Conditions: vs non-treated controls.
Data set [5] has as its system hESC-derived CMs 3D tissues. The class given is cell-based, human. Here is the method:
Alternatively, to measure the force generated by the 3D engineered cardiac tissues, a bioreactor consisting of a PDMS tissue chamber capable of housing 8 micotissues was employed. […] Briefly, each well of the PDMS chamber had two posts which served as anchoring points for each cardiac tissue during gel compaction. Furthermore, by tracking a post's deflection, the force of contraction a cardiac tissue generated was determined. Cardiac tissues underwent 7 days of pre-culture followed by 7 days of treatment with endothelin-1, angiotensin II or isoproterenol. After the treatment, the contractile force of each cardiac tissue was determined by video recording, one at a time, the top surface of a post for each cardiac tissue while being paced at 0.5 or 1 Hz using CellSens software (Olympus). Each video was then exported as a series of Tiff images and opened in ImageJ. […] Using the method of superposition for a cantilever beam-partial uniform deflection, a point force was calculated and then normalized to the tissues cross sectional area (assumed circular) to determine the cardiac force per area.

In data set [6] the test system is hESC-CM biowires (Hes2). Nature of the data set: Chronic drug exposure: ELISA of soluble BNP in conditioned media. It counts as cell-based, human. As to the method:
After preculture for 7 days, biowires were randomly transferred to 6-well plates and cultured in StemPro-34 media in the absence or presence of Isoproterenol (100 nM), Angiotensin II (200 nM [17]) or Endothelin-1 (150 nM)(Sigma) for 7 days. This protocol was chosen to replicate the chronic treatment of mice as described. […] Isolated single cells were seeded on Matrigel-coated glass cover slips before cell area and calcium transient measurements were performed. ELISA. Quantification of soluble BNP from the conditioned media was performed using commercially available ELISA kits.

Data set [7] concerns hESC-CM biowires (Hes2). It counts as cell-based, human. Here is the method:
After preculture for 7 days, biowires were randomly transferred to 6-well plates and cultured in StemPro-34 media in the absence or presence of Isoproterenol (100 nM), Angiotensin II (200 nM [17]) or Endothelin-1 (150 nM)(Sigma) for 7 days. This protocol was chosen to replicate the chronic treatment of mice as described. […] Isolated single cells were seeded on Matrigel-coated glass cover slips before cell area and calcium transient measurements were performed. Immunostaining and Fluorescence Microscopy. Immunostaining was performed using the following antibodies: mouse anti-cTNT (1:100, Thermo Scientific; MS-295-P1), mouse anti-α-actinin (1:200, Abcam, ab9465), anti-mouse-Alexa Fluor 488 (1:400, Invitrogen, A21202), anti-rabbit-TRITC (1:400, Invitrogen, 81-6114). DAPI was used to counterstain nuclei. Phalloidin Alexa Fluor 660 (1:1000, Invitrogen, A22285) was used to detect actin fibers. The stained cells were visualized using a fluorescence microscope (Leica CTR6000) and images captured using the Leica Application Suite software. For confocal microscopy cells were visualized using a fluorescence confocal microscope (Zeiss LSM-510). Transmission Electron Microscopy (TEM). Tissue was fixed with 4% Paraformaldehyde, 1% Glutaraldehyde in 0.1 M PBS for at least 1 hr and washed 3 times with PBS pH 7.2. Post-fixation was done with 1% Osmium Tetraoxide in 0.1 M PBS, pH 7.2 for 1 hr and dehydrated using ethanol series from 25 to 100%. Tissue was infiltrated using Epon resin and polymerized in plastic dishes at 40° C. for 48 hr. Tissue was stained with Uranyl Acetate and Lead Citrate after sectioning. Imaging was performed at Hitachi H-7000 transmission electron microscope.

The subject of data set [8] is human cardiac tissue strands (hESC, Hes2 derived cardiomyocytes). Kind of data set: Biorod drug testing: tissue beating pattern and contractile force by polymer wire deflection. It counts as cell-based. As to the method:
Cardiomyocytes were derived from human embryonic stem cell lines (hESC, Hes2). Embryoid bodies (EBs) were differentiated to the cardiovascular lineage and disassociated as previously described in Device 1 Methods. Before cell seeding, micro-well surface was rinsed with 5% (w/v) Pluronic Acid (Sigma P2443) and then air dried in the bio-safety cabinet. hESC derived cardiomyocytes were suspended at 200 million/ml (unless specified otherwise) in Collagen Type I based gel (3.0 mg/ml of rat tail collagen type I (BD Biosciences) neutralized by 1N NaOH and 10×M199 media as described by the manufacturer) with the supplements of […], 1% (v/v) HEPES, 10% (v/v) Matrigel (BD Biosciences), and […]. Suspended cardiomyocytes were then seeded into the cell culture channel (2.5 μl per well). After 30 min incubation at 37° C. to induce the gelation, appropriate media were added. After seeding, cells were kept in culture for 7 days to allow collagen matrix remodeling and assembly around the wires. Cardiac tissue strands were kept in culture for up to 21 days with media change every 2-3 days. Preferably, the tissue strands should be kept in culture for at least 2 weeks to allow for maturation; however there is no limitation on the maximum culture duration. Cardiac tissue strands were seeded to observe the stability and reproducibility of tissue in long term culture. After seeding, brightfield images (see FIG. 39A for an example) of the tissue strands were taken every day (n=3 per group) using optical microscope (Olympus CKX41) and the diameters of the tissue strands at four distinct locations were analyzed with imageJ (see FIG. 39B for an example). Tissue strand lengths were also analyzed with same method.
Tissue contractile behavior tracing and measurement was carried out. POMac is auto-fluorescent at a wide range of wavelenths; therefore the wires were imaged with a fluorescence microscope under DAPI channel (e.g. 461 nm wavelength) to trace the bending movements of the wires. The POMac is auto-fluorescent at a wide range of wavelengths, including under FITC and Tritc channels. Images were taken at 25 frames per second (fps) (see FIG. 39C). Image sequences were analyzed with ImageJ software using tracking plugin. To calculate the forces originated from cardiac tissues, beam deflection formula with uniformly distributed load in the middle section was used here. […] The engineered cardiac tissues were paced at 2 Hz frequency. From this image sequence, contraction and relaxation time of beating can be estimated. […] Tissue stretching wires can be considered uniformly distributed Load, Wo (Load per force bearing length), which can be calculated with displacement of center point of wires in image sequence, and F can be calculated as well. […] Briefly, entire beam length was L. Section of wire with tissue wrapping around it was experiencing load. Here, the load was assumed to be evenly distributed throughout this section, and Wo was load per length. […] The distance between side of the tissue and a well wall is a, which was assumed equal for both sides. The deflection at center point was y.
Drug testing was carried out.

Data set [9] has as its system hESC-derived cardiomyocyte tissue strands. Nature of the data set: NO treatment of perfusable human cardiac tissue strands, beating activity by image analysis. It counts as cell-based. The conditions noted are these: 24 hr NO treatment by perfusion of 200 mM SNP. Here is the method:
NO treatment of human cardiac tissue strands was carried out. On day 7, the NO treatment of human cardiac tissue strand was initiated by perfusing the 200 mM SNP solution and the peristaltic pump was stopped once the SNP solution was perfused through the tubing. The beating activities of the human cardiac tissue strands were recorded at 16.67 frames/second before treatment and 24 hr post-treatment by Olympus IX81 while the tissue strands were kept at 37° C. The beating activities of the human cardiac tissue strands were quantified by the image analysis method described by Sage et al^28. In brief, the movements of one spot at the same location on the human cardiac tissue strand before and after the NO treatment were characterized.

Data set [10] has the same test system. Nature of the data set: α-actinin immunostaining and confocal microscopy of NO-treated tissue strands. Conditions: NO treatment by perfusion, vs control tissue strands. The class given is cell-based, human. As to the method:
Tissue strands were fixed with 4% parafornaldehyde, permeablized by 0.25% Triton X-100, and blocked by 10% bovine serum albumin (BSA). Immunostaining was performed using the following antibodies: mouse anti-cardiac Troponin T (cTnT) (Abcam; 1:100), mouse anti-α-actinin (Abcam; 1:200) and anti-rabbit-TRITC (Invitrogen; 1:200), anti-mouse-TRITC (Jackson Immuno Research; 1:200). Nuclei were counterstained with 4′,6-diamidino-2-phenylindole (DAPI) (Biotium; 1:100). Phalloidin-Alexa 660 (Introgen; 1:600) was used to stain F-actin fibers. For confocal microscopy, the stained cardiac tissue strands were visualized under an inverted confocal microscope (Olympus IX81) or an upright confocal microscope (Zeiss LSM 510).
NO treatment of human cardiac tissue strands was carried out. On day 7, the NO treatment of human cardiac tissue strand was initiated by perfusing the 200 mM SNP solution and the peristaltic pump was stopped once the SNP solution was perfused through the tubing. The beating activities of the human cardiac tissue strands were recorded at 16.67 frames/second before treatment and 24 hr post-treatment by Olympus IX81 while the tissue strands were kept at 37° C. The beating activities of the human cardiac tissue strands were quantified by the image analysis method described by Sage et al^28. […]

“Also recorded” adds a separate entry of the source.

Take `CC(C)NCC(O)c1ccc(O)c(O)c1` (centres unmarked) [ISO, Isoproterenol]: in [1], the “increase in cell size” value came to 35%. In the data set on hESC-CM biowires (Hes2) [2], the conduction velocity result is “the same”. Besides, the “ANF and BNP gene expression (fetal gene program)” value in the data set on hESC-CM biowires (Hes2) [3] is “significantly induced”; with hESC-CM biowires (Hes2) [3] (listed as Isoproterenol), “induction of brain natriuretic peptide (BNP) and atrial natriuretic factor (ANF) gene expression”. Further, the “cell viability (live/dead staining)” value in data set [4] is recorded as “no differences”. Moreover, the force of contraction entry in [5] is listed as “significantly reduced force of contraction”. Besides, in the data set on hESC-CM biowires (Hes2) [6] (chronic treatment), the “BNP in the conditioned media” value was “BNP can also be found in the conditioned media”. Moreover, in the data set on hESC-CM biowires (Hes2) [6] (day 2 post-treatment, media conditioned for 48 h), the “increase in the secretion of BNP” value stood at 2.5 fold. In the data set with hESC-CM biowires (Hes2) [6] (day 7, media conditioned for 24 h), the “increase of BNP in the media” value is recorded as 70%. Besides, in the data set on hESC-CM biowires (Hes2) [7], the “contractile apparatus (transmission electron microscopy)” value was “significant absence of distinct Z-disks and the lack of a defined sarcomere structure”. In addition, the “tissue contractile forces normalized to forces before drug addition” value is “positive inotropic action” in data set [8] (100 nM), “positive inotropic action” in [8] (1 μM) and “slight negative inotropic effect” in [8] (10 μM). Moreover, in data set [8] (summary statement), the “response of human cardiac tissues to well-known drugs” value is “responded appropriately”.
As for `[N]=O` [NO, nitric oxide], the “spontaneous beating of human cardiac tissue strands” value in data set [9] (vs basal level) is recorded as “significantly slowed down the beating”. For the same molecule, the “beating frequency after NO treatment normalized to the basal level” value in data set [9] (n=3) was found to be 74±3%. Further, the “α-actinin structure (cytoskeleton) of cardiomyocytes” value in [10] is reported as “disrupted α-actinin structure; also recorded: overall punctate pattern”.

These data come from US12158464B2, “Methods for modeling disease tissue using three-dimensional tissue systems” (priority 2013, dated 2024).
